{"source": "patent US20070213310A1", "about": "“Prodrugs for Use as Ophthalmic Agents” (priority 2002, published 2007)", "key": {"[1]": {"test": "logP measured by the shake-flask method", "format": "physicochemical"}, "[2]": {"test": "Lipid peroxidation inhibition, thiobarbituric acid reactive substances (TBARS) method", "format": "biochemical", "conditions": "inhibition of lipid peroxidation", "excerpt": "(§1) Because lipid peroxidation (LPO) is a common marker of damage induced by reactive oxygen species (ROS) (Gutteridge JMC, “Lipid-peroxidation and antioxidants as biomarkers of tissue-damage,” Clin Chem, 41: 1819-1828 (1995); Kaur and Geetha, “Screening methods for antioxidants—A review,” Mini-Rev Med Chem, 6: 305-312 (2006)), two assays were employed to measure capacity to inhibit LPO: the ferric thiocyanate (FTC) and the thiobarbituric acid reactive substances (TBARS) methods. With these assays, the autoxidation of linoleic acid (a lipid model) is measured in the absence and, then, presence of different concentration of antioxidants. […] During the oxidation process, peroxide is gradually decomposed to lower molecular-weight compounds such as malondialdehyde (MDA) that is measured by the TBARS method (Kikuzaki and Nakatani, J Food Sci, 58: 1407-1410 (1993)). […]\n(§2) The TBARS assay is a widely adopted and sensitive method for measurement of lipid peroxidation (Callaway J K, Beart P M and Jarrott B. “A reliable procedure for comparison of antioxidants in rat brain homogenates.” J Pharmacol Toxicol Meth, 39: 155-162 (1998)). […] The MDA-TBA complex measured by the TBARs assay is a gauge of LOOH formation (Janero D R. “Malondialdehyde and thiobarbituric acid-reactivity as diagnostic indices of lipid peroxidation and peroxidative tissue injury.” Free Rad Biol Med, 9: 515-540 (1990)). […]"}, "[3]": {"test": "Lipid peroxidation inhibition, ferric thiocyanate (FTC) method", "format": "biochemical", "conditions": "inhibition of lipid peroxidation", "excerpt": "as §1, §2"}, "[4]": {"system": "Human retinal ganglial cells (RGC)", "test": "Viability of retinal ganglial cells (RGC) incubated with glutamate", "format": "cell-based", "conditions": "for effect on RGC viability, compound alone: without glutamate; for RGC killed by glutamate in the presence of the compound: glutamate 5 mM plus compound (three concentrations)", "experimental": "Human retinal ganglial cells (RGC) were incubated with glutamate (5 mM), the estrogen analogue 3,17-dihydroxyestra-1,3,5(10),9(11)-tetraene (ZYC1) or combination of glutamate and various concentrations of ZYC1.\nRGC were treated with glutamate (5 mM) in the presence or absence of ZYC1."}, "[5]": {"conditions": "37° C.", "protocol": "By way of example, conversion of Formula II by NAD(P)H as an endogenous reducing agent was tested. […] At incremental time points, 100 μl aliquots were removed into ice-cold centrifuge tubes, and 100 μl of glacial acetic acid was added. After immediate extraction with ethyl acetate, the organic layer was evaporated under nitrogen stream. […] For the control experiment, no reducing agent was used.\nLiquid chromatography separation was done using a Supelco (Bellfonte, Pa.) 5 cm×2.1 mm i.d. Discovery HS C-18 reversed-phase column with 0.25 ml/min water:methanol:2-propanol:acetic acid:dichloromethane (53:35:5:5:2, v/v) as a mobile phase. The sample residues were dissolved in 40 μl of mobile phase, respectively, and 5 μl of the solution was injected for analysis. Mass spectra were recorded on a quadruple ion-trap instrument (LCQ®, ThermoFinnigan, San Jose, Calif.) using positive-ion atmospheric-pressure chemical ionization (APCI) as the method of ionization. MS/MS and MS^3 product-ion scans were obtained after collision-induced dissociation (CID) with helium as the target gas. […] As an internal standard, 1,3,5(10)-estratrien-17α-ethynyl-17β-ol was added before each sample extraction."}}, "note": "“Also recorded” adds a separate entry of the source. Like-named read-outs stand apart in the source and are kept apart here.", "data": [{"smiles": "C[C@]12CC[C@H]3[C@@H](CCC4=CC(=O)C(C56CC7CC(CC(C7)C5)C6)=C[C@@]43O)[C@@H]1CC[C@@H]2O", "note": "[2-(1-adamantyl)-10β,17β-dihydroxyestra-1,4-dien-3-one]", "values": [{"measurement": "logP", "setting": "[1]; n-octanol/water, shake-flask, read-out: logPexp", "result": 3.26}]}, {"smiles": "C[C@]12CC[C@@H]3c4cc(C56CC7CC(CC(C7)C5)C6)c(O)cc4CC[C@H]3[C@@H]1CC[C@@H]2O", "note": "[2-(1-adamantyl)-estra-1,3,5(10)-triene-3,17β-diol]", "values": [{"measurement": "IC50", "setting": "[2]", "result": "0.75 ± 0.11", "unit": "µM"}, {"measurement": "IC50", "setting": "[3]", "result": "1.5 ± 0.1", "unit": "µM"}, {"measurement": "logP", "setting": "[1]", "result": 6.51}]}, {"smiles": "C[C@]12CC[C@@H]3c4ccc(O)cc4C[C@@H](CCCCCCCCC[S+]([O-])CCCC(F)(F)C(F)(F)F)[C@H]3[C@@H]1CC[C@@H]2O", "note": "(some centres unmarked) [IC1182,780, reference compound]", "values": [{"measurement": "antagonism of ZYC1 protection of RGC", "setting": "[4]; glutamate 5 mM, ZYC1 plus various concentrations of estrogen receptor antagonist", "result": "little antagonism"}]}, {"smiles": "C[C@]12CC=C3c4ccc(O)cc4CC[C@H]3[C@@H]1CCC2O", "note": "(some centres unmarked) [ZYC1, 3,17-dihydroxyestra-1,3,5(10),9(11)-tetraene]", "values": [{"measurement": "effect on RGC viability, compound alone", "setting": "[4]", "result": "no effect"}, {"measurement": "RGC killed by glutamate in the presence of the compound", "setting": "[4]", "result": "killed significantly fewer cells; also recorded: reduced the number of RGC killed by glutamate"}]}, {"smiles": "C[C@]12CC[C@@H]3c4cc(C56CC7CC(CC(C7)C5)C6)c(O)cc4CC[C@H]3[C@@H]1CCC2=O", "note": "[ZYC3, 2-(1-adamantyl)-3-hydroxyestra-1,3,5(10)-trien-17-one]", "values": [{"measurement": "IC50", "setting": "[2]", "result": "5.8 ± 1.3", "unit": "µM"}, {"measurement": "effect on RGC viability, compound alone", "setting": "[4]", "result": "no affect"}, {"measurement": "RGC killed by glutamate in the presence of the compound", "setting": "[4]", "result": "killed significantly fewer cells"}, {"measurement": "IC50", "setting": "[3]", "result": "5.3 ± 1.2", "unit": "µM"}]}, {"smiles": "C[C@]12CC[C@H]3[C@@H](CCC4=CC(=O)C=C[C@@]43O)[C@@H]1CCC2=O", "note": "[estrone quinol, 10β-hydroxyestra-1,4-diene-3,17-dione]", "values": [{"measurement": "rate of conversion", "setting": "[5]; 10-fold excess NADPH, 0.1 mM quinol, 0.1M sodium phosphate buffer pH 7.5", "result": "6e-07 ± 4e-08", "unit": "M/min"}, {"measurement": "formation of estrone", "setting": "[5]; incubation with NADH or NADPH, pH 7.5", "result": "clearly detectable"}]}, {"smiles": "N[C@@H](CCC(=O)O)C(=O)O", "note": "[glutamate, reference compound]", "values": [{"measurement": "RGC killed by glutamate", "setting": "[4]; glutamate 5 mM alone", "result": "about 70%"}]}]}
